Experimental data published in US6476079B1, “Devices for the delivery of drugs having antiprogestinic properties” (priority 1999, dated 2002).

Assay: Permeation test of antiprogestins through elastomer membranes (two-compartment diffusion cell)
Format: physicochemical
Details: 37° C.
Method: The assay apparatus described in the publication Yie W. Chien, Transdermal Controlled Systemic Medications, Marcel Dekker Inc., New York and Basel 1987, page 173, was used in the tests.
The drug fluxes (permeations) through membranes were measured with a two-compartment diffusion cell at 37° C. (Side-Bi-Side™ diffusion cell, Crown Glass Company). The apparatus consisted of two concentric cells (donor and receptor compartments) that were separated by the elastomer membrane to be investigated. […] A drug solution and solvent (without drug) was added into the donor and the receptor compartments. At each predetermined time interval, samples were withdrawn from the receptor compartment and replaced with the same volume of solvent. The amount of the drug that permeated through the membrane was measured by HPLC. In all measurements, the thickness (0.4 mm) of the membrane and the surface area of the membranes were constant.
In the tests described below, the permeation rates of two different drugs through a 0.4-mm-thick elastomer membrane were measured by using the assay apparatus described above. The tables below show the effect of the concentration of PEO groups (% by weight of the said compositions) on the permeation rates of the different drugs for elastomers prepared from different composition types. The tables show the relative permeation as compared with a commercial crosslinked dimethyl siloxane-vinyl methyl siloxane elastomer (Mn approximately 400,000 g/mol) containing a silica filler.

[1] = composition type A, PEO concentration 4.7 % by weight, 0.4 mm membrane, relative to reference elastomer
[2] = reference membrane: commercial crosslinked dimethyl siloxane-vinyl methyl siloxane elastomer with silica filler, PEO 0 % by weight, 0.4 mm
[3] = composition type A, PEO concentration 5.1 % by weight, 0.4 mm membrane, relative to reference elastomer
[4] = composition type B, PEO concentration 3.1 % by weight, 0.4 mm membrane, relative to reference elastomer
[5] = composition type B, PEO concentration 4.1 % by weight, 0.4 mm membrane, relative to reference elastomer
[6] = composition type B, PEO concentration 5.0 % by weight, 0.4 mm membrane, relative to reference elastomer
[7] = composition type B, PEO concentration 7.5 % by weight, 0.4 mm membrane, relative to reference elastomer
[8] = composition type B, PEO concentration 9.8 % by weight, 0.4 mm membrane, relative to reference elastomer

Relative permeation (composition type A, PEO concentration 5.3 % by weight, 0.4 mm membrane, relative to reference elastomer)	Relative permeation [7]	Compound	Relative permeation [1]	Relative permeation [2]	Relative permeation [3]	Relative permeation [4]	Relative permeation [5]	Relative permeation [6]	Relative permeation [8]	Relative permeation (composition type B, PEO concentration 1.4 % by weight, 0.4 mm membrane, relative to reference elastomer)
5.9	–	(Z)-6′-(4-Cyanophenyl)-17-β-hydroxy-17-α-(3-isovaleryloxy-1-propenyl))-9,11-α-diydro-4′H-naphth [3′,2′,1′:10,9,11]estr-4-en-3-one [Compound 6]	2.9	1	–	–	–	–	–	–
–	–	COC[C@]1(OC)CC[C@H]2[C@@H]3CCC4=CC(=O)CCC4=C3[C@@H](c3ccc(/C=N/O)cc3)C[C@@]21C [Compound 1, 4-[17β-methoxy-17α-(methoxymethyl)-3-oxoestra-4,9-dien-11β-yl]benzaldehyde-1-(E)-oxime]	3.5	1	5.3	–	–	–	–	–
–	18.7	CN(C)c1ccc([C@H]2C[C@@]3(C)[C@@H](CC[C@@]3(O)/C=C\CO)[C@@H]3CCC4=CC(=O)CC[C@@H]4[C@H]32)cc1 [Compound 5, Estr-4-en-3-one, 11-[4-(dimethylamino)phenyl]-17-hydroxy-17-(3-hydroxy-1-propenyl)-,[11.beta,17β,17(Z)]-(9CI)]	4.1	1	–	6.0	6.7	10.7	37.2	–
–	–	CCSC(=O)O/N=C/c1ccc([C@H]2C[C@@]3(C)[C@@H](CC[C@@]3(COC)OC)[C@@H]3CCC4=CC(=O)CCC4=C32)cc1 [Compound 3]	–	1	–	–	–	–	6.4	2.1
–	16.4	CC(=O)c1ccc([C@H]2C[C@@]3(C)[C@@H](CC[C@@]3(O)C(F)(F)C(F)(F)F)[C@@H]3CCC4=CC(=O)CCC4=C32)cc1 [Compound 4, 11β-(4-Acetylphenyl)-17β-hydroxy-17α-(1,1,2,2,2-pentafluoroethyl)estra-4,9-dien-3-one]	–	1	–	–	–	–	27.6	–

Compound	Relative permeation (composition type A, PEO concentration 5.3 % by weight, 0.4 mm membrane, relative to reference elastomer)	Relative permeation [7]	Relative permeation [1]	Relative permeation [2]	Relative permeation [3]	Relative permeation [4]	Relative permeation [5]	Relative permeation [6]	Relative permeation [8]	Relative permeation (composition type B, PEO concentration 1.4 % by weight, 0.4 mm membrane, relative to reference elastomer)
CCNC(=O)ON=Cc1ccc(C2CC3(C)C(CCC3(COC)OC)C3CCC4=CC(=O)CCC4=C23)cc1 (stereo not drawn) [Compound 2, 4-[17β-Methoxy-17α-(methoxymethyl)-3-oxoestra-4,9-dien-11β-yl]benzaldehyde-1-[O-(ethylamino)carbonyl]oxime]	–	11.5	4.1	1	7.6	3.7	4.1	5.8	17.3	–
